Experimental data as given in US11591404B2, “Treatment of cancer using a CD123 chimeric antigen receptor” (Novartis AG, priority 2014, dated 2023).
“Also recorded” adds a separate entry of the source.

Columns and labels:
[1] = tested on: r/r B-ALL; conditions: cited from earlier work
[2] = tested on: CAR-expressing, transduced T cells; experiment: Proliferation of CARTs co-cultured with Nalm-6 cells in the presence of RAD001, 4 days; format: cell-based; conditions: low doses of RAD001, cell culture, 4 days of co-culture
Method: CARTs were co-cultured with Nalm-6 cells in the presence of different concentrations of RAD001. The number of CAR-positive CD3-positive T cells (black) and total T cells (gray) was assessed after 4 days of co-culture.

[3] = tested on: humanized CD19 CART cells; experiment: In vivo proliferation of humanized CD19 CART cells with and without RAD001 dosing; conditions: RAD001 0.003 mg/kg daily with huCTL019
Method: Circles denote PBS; squares denote huCTL019; triangles denote huCTL019 with 3 mg/kg RAD001; inverted triangles denote huCTL019 with 0.3 mg/kg RAD001; diamonds denote huCTL019 with 0.03 mg/kg RAD001; and circles denote huCTL019 with 0.003 mg/kg RAD001.

[4] = tested on: huCART19 cells cultured with Nalm-6; experiment: CART proliferation in 4 day co-culture with RAD001; format: cell-based, human; conditions: 0.0032 and 0.016 nM RAD001
Method: To evaluate the functionality of CARTs, the T cells are thawed and counted, and viability is assessed by Cellometer. The number of CAR-positive cells in each culture is normalized using non-transduced T cells (UTD). The impact of RAD001 on CARTs was tested in titrations with RAD001, starting at 50 nM. The target cell line used in all co-culture experiments is Nalm-6, a human pre-B cell acute lymphoblastic leukemia (ALL) cell line expressing CD19 and transduced to express luciferase.
For measuring the proliferation of CARTs, T cells are cultured with target cells at a ratio of 1:1. The assay is run for 4 days, when cells are stained for CD3, CD4, CD8 and CAR expression. The number of T cells is assessed by flow cytometry using counting beads as reference.

[5] = tested on: NALM6-luc tumors; experiment: NALM6-luc tumor growth under daily oral RAD001; format: in vivo, NSG mice; conditions: daily oral dosing of RAD001 alone
Method: NALM6-luc cells: The NALM6 human acute lymphoblastic leukemia (ALL) cell line was developed from the peripheral blood of a patient with relapsed ALL. The cells were then tagged with firefly luciferase. These suspension cells grow in RPMI supplemented with 10% heat inactivated fetal bovine serum.
Mice: 6 week old NSG (NOD.Cg-Prkdc^scidIl2rg^tmIWjl/SzJ) mice were received from the Jackson Laboratory (stock number 005557).
Tumor implantation: NALM6-luc cells were grown and expanded in vitro in RPMI supplemented with 10% heat inactivated fetal bovine serum. The cells were then transferred to a 15 ml conical tube and washed twice with cold sterile PBS. NALM6-luc cells were then counted and resuspended at a concentration of 10×10^6 cells per milliliter of PBS. The cells were placed on ice and immediately (within one hour) implanted in the mice. NALM6-luc cells were injected intravenously via the tail vein in a 100 μl volume, for a total of 1×10^6 cells per mouse.
(§1) RAD001 dosing: A concentrated micro-emulsion of 50 mg equal to 1 mg RAD001 was formulated and then resuspended in D5W (dextrose 5% in water) at the time of dosing. Mice were orally dosed daily (via oral gavage) with 200 μl of the desired doses of RAD001.

[6] = PK analysis of RAD001 in tumor bearing mice; format: in vivo, NSG mice
Method: as §1
PK analysis: Mice were dosed daily with RAD001 starting 7 days post tumor implantation. Dosing groups were as follows: 0.3 mg/kg, 1 mg/kg, 3 mg/kg, and 10 mg/kg. Mice were bled on days 0 and 14 following the first and last dose of RAD001, at the following time points for PK analysis: 15 minutes, 30 minutes, 1 hour, 2 hours, 4 hours, 8 hours, 12 hours, and 24 hours.

[7] = tested on: huCAR19 CAR T cells; experiment: CAR T cell expansion in vivo with RAD001 (FACS); set-up: species or system NSG mice; conditions: lowest doses of RAD001
Method: CAR T cell dosing: Mice were administered 5×10^6 CAR T cells 7 days after tumor implantation. Cells were partially thawed in a 37 degree Celsius water bath and then completely thawed by the addition of 1 ml of cold sterile PBS to the tube containing the cells. The thawed cells were transferred to a 15 ml falcon tube and adjusted to a final volume of 10 mls with PBS. The cells were washed twice at 1000 rpm for 10 minutes each time and then counted on a hemocytometer. T cells were then resuspended at a concentration of 50×10^6 CAR T cells per ml of cold PBS and kept on ice until the mice were dosed. The mice were injected intravenously via the tail vein with 100 μl of the CAR T cells for a dose of 5×10^6 CAR T cells per mouse. Eight mice per group were treated either with 100 μl of PBS alone (PBS), or humanized CD19 CAR T cells.
as §1
Based on these doses, huCAR19 CAR T cells were dosed with and without RAD001 to determine the proliferative ability of these cells. The highest dose used was 3 mg/kg based on the levels of RAD001 in the blood 24 hours after dosing. […] Mice were monitored via FACS for T cell expansion.

[8] = tested on: CART123P2A CD20 cells; experiment: Rituximab-mediated cytotoxicity, T cell depletion; format: cell-based; conditions: 100 ug/ml, 48 hours of incubation
Method: Rituximab-mediated cytotoxicity was next assessed for the CART123 P2A CD20 cells. CART123 and CART123 P2A CD20 were incubated with Rituximab at various concentrations, 0 μg/ml, 1 μg/ml, 10 μg/ml and 100 μg/ml. Cells were harvested at 0, 4, 12, and 48 hours, and stained for CD3. The percentage of T cell depletion was computed.

[9] = tested on: CART123 P2A CD20 cells; experiment: Rituximab complement dependent cytotoxicity (15% rabbit complement); format: cell-based
Method: The mechanism by which the CART123P2ACD20 cell depletion is mediated was investigated. CART123 P2A CD20 cells were incubated with rituximab at different concentrations 0 μg/ml, 1 μg/ml, 10 μg/ml and 100 μg/ml, in the presence of 15% rabbit complement. […] CART123 P2A CD20 cell depletion is mediated by complement dependent cytotoxicity.

[10] = tested on: luciferase-expressing human AML cell lines (MOLM14, MOLM13, U937) or primary AML specimens; experiment: Human AML xenograft models, T cell termination strategies; format: in vivo, mice; conditions: for elimination of CD123-redirected CAR T cells: alemtuzumab 1 or 5 mg/kg IP, rituximab 10 mg/kg IP; for AML proliferation, antibody alone: non-CART123-treated xenograft models vs AML-only controls
Source text: Three termination strategies in human AML xenograft models were examined: (1) T cell ablation with the anti-CD52 antibody alemtuzumab after treatment with 1×10^5-1×10^6 T cells lentivirally-transduced with anti-CD123-41BB-CD3zeta CART123, (2) T cell ablation with the anti-CD20 antibody rituximab after treatment with 1×10^5-1×10^6 CART123 engineered to co-express CD20 (CART123/CD20), and (3) treatment with “biodegradable” anti-CD123 mRNA-electroporated CAR T cells (RNA-CART123). Mice engrafted with luciferase-expressing human AML cell lines (MOLM14, MOLM13, U937) or primary AML specimens (n=3) were treated with CD123-redirected CAR T cells as above. The CD123 CAR construct utilized for this experiment is the 1172 construct (SEQ ID NO: 707), and were administered to the mice at week 1. For T cell depletion studies, alemtuzumab 1 or 5 mg/kg was injected intraperitoneally (IP) at week 2, week 3, or week 4 (e.g., 1, 2, or 3 weeks post-CART123) to determine optimal dosing and timing of T cell ablation. In subsequent studies, rituximab 10 mg/kg was injected IP 4 weeks after CART123/CD20, or 1×10^7 RNA-CART123 was injected intravenously at 5, 9, and 16 days after AML engraftment. Mice were followed by weekly bioluminescent imaging and/or quantitative flow cytometry analyses of blood, spleen, and/or bone marrow.

[11] = tested on: AML290 cells; experiment: Pediatric patient-derived xenograft model; format: in vivo, mice
Method: Alemtuzumab treatment was also examined in a second in vivo model, a pediatric patient-derived xenograft model. In this model, mice were injected with AML290 cells. Six weeks after AML engraftment, the mice were administered saline, untransduced T cells, or CART123 cells (represented at week 0). Alemtuzumab was administered at 5 mg/kg to a subset of the mice receiving CART123 cells at week 4. […] Analysis of AML present in different organs of the xenografts after CART123 dosing was determined by flow cytometry.

blinatumomab: bi-specific anti-CD19/CD3 antibody
share of relapses that are CD19-negative [1]: about 30%

CO[C@H]1C[C@@H]2CC[C@@H](C)[C@@](O)(O2)C(=O)C(=O)N2CCCC[C@H]2C(=O)O[C@H]([C@H](C)C[C@@H]2CC[C@@H](OCCO)[C@H](OC)C2)CC(=O)[C@H](C)/C=C(\C)[C@@H](O)[C@@H](OC)C(=O)[C@H](C)C[C@H](C)/C=C/C=C/C=C/1C [RAD001, (1R,9S,12S,15R,16E,18R,19R,21R,23 S,24E,26E,28E,30S,32S,35R)-1,18-dihydroxy-12-{(1R)-2-[(1S,3R,4R)-4-(2-hydroxyethoxy)-3-methoxycyclohexyl]-1-methylethyl}-19,30-dimethoxy-15,17,21,23,29,35-hexamethyl-11,36-dioxa-4-aza-tricyclo[30.3.1.04,9]hexatriaconta-16,24,26,28-tetraene-2,3,10,14,20-pentaone]
proliferation of CAR-expressing, transduced T cells [2]: enhanced | CART cell proliferation in vivo [3]: enhancement in CART cell proliferation | proliferation of huCART19 cells [4]: proliferation was higher than observed without the addition of RAD001 | growth of NALM6-luc tumors [5]: did not have an impact on the growth of NALM6-luc tumors | concentration of RAD001 ([6]; 24 hours after the final dose): above 10 nM | concentration at 24 h ([6]; NSG, mouse, blood, oral, 24 hours after dosing, 0.3 mg/kg, day 0 and day 14, read-out: RAD001 concentrations in the blood): > 10 nM | stability in the blood ([6]; tumor bearing mice): fairly stable in the blood | proliferation of the CAR T cells in vivo [7]: enhanced proliferation of the CAR T cells

Rituximab: anti-CD20 antibody
T cell depletion [8]: direct cytotoxicity | cell depletion with complement ([9]; Rituximab 100 ug/ml): depletion of the majority of CART123 P2A CD20 cells after 4 hours of incubation | cell depletion with complement ([9]; rituximab 1 ug/ml or 10 ug/ml): depletion of the majority of CART123 P2A CD20 cells after 12 hours of incubation | elimination of CD123-redirected CAR T cells [10]: rapidly eliminated T cells while preserving leukemia remission; also recorded: completely eliminated CD123-redirected CAR T cells | AML proliferation, antibody alone [10]: did not inhibit AML proliferation

alemtuzumab: anti-CD52 antibody
elimination of CD123-redirected CAR T cells [10]: rapidly eliminated CART123 cells | elimination of CD123-redirected CAR T cells ([10]; listed as Alemtuzumab): completely eliminated CD123-redirected CAR T cells | overall survival by timing of ablation ([10]; alemtuzumab at week 3 or week 4 vs week 2): improved survival | AML proliferation, antibody alone [10]: did not inhibit AML proliferation | AML cells in spleen and bone marrow (flow cytometry) ([11]; AML290): sustained ablation of AML cells in the spleen | tumor progression / remission ([11]; AML290): remained in remission | elimination of CART123 T cells in the peripheral blood ([11]; alemtuzumab 5 mg/kg at week 4): completely eliminate CART123 T cells in the peripheral blood
